{"source": "patent US20070202165A1", "about": "“Method for a supplemental dietary composition having a multi-phase dissolution profile” (priority 2006, published 2007)", "type_in_all_cases": "physicochemical", "key": {"[1]": {"assay": "Solubility test with filtration: amount dissolved until saturated and dry powder remaining on filter paper", "conditions": "gravity filtration, filter paper dried", "method": "A second experiment relating to fine-milling and potential increase in bioavailability was conducted. In order to test the capacity of fine-milling to improve the rate bioavailability of substances, a simple test was performed. The test was conceived to mimic various elements involved in the processes of oral administration of a nutritional supplement. The key parameters involved were rate of dissolution and solubility, as it is understood that an ingested nutrient must be dissolved or reduced to a bio-transportable size in order to be utilized biochemically by the body.\nThe rates of dissolution and solubility of regular common nutritional supplements were compared to fine-milled versions within a fixed time.\n100 mL of water was added to a 250 mL beaker and a magnetic stirring bar was placed in the beaker. The beaker was placed on a magnetic stirrer and stirred with low speed. 1 g of a given supplemental dietary ingredient powder was added incrementally to the beaker with the stirring speed constant until the solution visually appeared saturated. […]\nThe ‘Fold Change’ represents the change in the amount of substance unable to pass through the filter as calculated by the amount of unfiltered regular substance divided by the amount of unfiltered fine-milled substance and represents the potential theoretical improvement in bioavailability."}, "[2]": {"assay": "Kinetic dissolution experiment: samples filtered at 1 and 5 minutes", "conditions": "for weight of unfiltered sample: 1 g in 50 mL water, Whateman 41 filter", "protocol": "In order to expand on the results of the aforenoted experiments, a kinetic experiment was conducted to examine the change in the dissolution rate over short time periods.\n1 g of sample was added to 50 mL water in a flask with a magnetic stir bar on a stirrer set at constant speed. Separate samples were filtered at 1 and 5 minutes. The pre-weighed filter papers (Whateman 41, particle retention 20-25 μm) were allowed to dry and the amount of sample remaining on the filter paper was determined."}, "[3]": {"assay": "Time to dissolve in water, estimated by visual inspection, regular vs fine-milled ingredients", "conditions": "for Time taken to dissolve: 100 mL water, magnetic stirring", "protocol": "In order to determine the effect of fine-milling on the dissolution rate, initial testing was performed to examine the rate of dissolution of common supplemental dietary ingredients. For the purposes of this disclosure, the term “regular” as used herein makes reference to non-fine-milled particles. 100 mL of water was placed into a 250 mL beaker and a magnetic stirrer bar was added to the beaker. The beaker was then placed on a magnetic stirrer was set to constant speed. […] The time required to dissolve was estimated by visual inspection. Equal amounts of the fine-milled ingredients were then added to the water and the time required to dissolve was estimated by visual inspection."}}, "note": "Entries after “also recorded” stand apart in the source; their conditions may differ."}
{"smiles": "CN(CC(=O)O)C(=N)N.O", "note": "[Creatine Monohydrate]", "values": [{"measurement": "Dry Powder On Filter", "setting": "[1]; Powder type Fine-milled", "value": 0.01, "unit": "g"}, {"measurement": "Dry Powder On Filter", "setting": "[1]; Powder type Regular", "value": 0.19, "unit": "g"}, {"measurement": "Time to filter, fine-milled compared with regular samples (in words)", "setting": "[2]; 1- and 5-minute intervals", "value": "consistently longer for the fine-milled samples"}, {"measurement": "weight of unfiltered sample", "setting": "[2]; Fine-milled, filtered at 1-minute interval, listed as Creatine monohydrate, Monohydrate", "value": 0.33, "unit": "g"}, {"measurement": "weight of unfiltered sample", "setting": "[2]; Fine-milled, filtered at 1-minute interval, listed as creatine, Monohydrate", "value": 0.32, "unit": "g"}, {"measurement": "weight of unfiltered sample", "setting": "[2]; Fine-milled, filtered at 5-minute interval", "value": 0.27, "unit": "g"}, {"measurement": "weight of unfiltered sample", "setting": "[2]; Regular, filtered at 1-minute interval, listed as Creatine monohydrate, Monohydrate", "value": 0.32, "unit": "g"}, {"measurement": "weight of unfiltered sample", "setting": "[2]; Regular, filtered at 1-minute interval, listed as creatine, Monohydrate", "value": 0.33, "unit": "g"}, {"measurement": "weight of unfiltered sample", "setting": "[2]; Regular, filtered at 5-minute interval", "value": 0.40, "unit": "g"}, {"measurement": "Time taken to dissolve", "setting": "[3]; Powder type Fine-milled", "value": "<5", "unit": "min"}, {"measurement": "Time taken to dissolve", "setting": "[3]; Powder type Regular (non-fine-milled)", "value": "<5", "unit": "min"}, {"measurement": "Dissolution of fine-milled compared with regular ingredient (in words)", "setting": "[3]; fine-milled vs regular, Monohydrate", "value": "dissolved at the same rate in both the fine-milled and regular formats; also recorded: did not display a difference dependent on particle size"}]}
